The source of these data is US20050154537A1, “Methods, program products, and systems for single and multi-agent dosing and other related methods” (priority 2003, published 2005).

Structures are written as SMILES.

The data set has as its system ANC. The experiment in a line: Chemotherapeutic doublet cycle dose modifier (Taxol, Gemzar), ANC marker. The data set is classed as in vivo. The note with it: ANC of patient on doublet. The source says: Gemzar and Taxol are used in this example as dual agents. Table 2 illustrates a method of revising a drug dose in treating a patient with two pharamcologic and non-pharmacological modalities to optimize pharmacologic outcome, e.g., to reduce risk of an adverse drug event while assessing the clinical relevancy and validity of the measured surrogate markers.
Previous Level of Toxicity-Efficacy (PLTE) is a value directly entered such as from a lab report. It is the numerical value of the marker of toxicity or efficacy reported at the previous dose cycle adjustment (evaluated at a specified elapsed time sufficient to capture the nadir of the dose effect). The surrogate marker is selected when the dose modifier is constructed.
Current Level of Toxicity-Efficacy (CLTE) is a value directly entered such as from a lab report. It is the numerical value of the marker of toxicity or efficacy reported with the current dose cycle. The surrogate marker is that value that illustrates the expression of the toxicity or efficacy of the agent on a specific and pre-selected value determined when the dose modifier is constructed. […] If valid, then the value is fully appreciated and the dose modification can be calculated. […]
Projected Marker Agent 1 (Taxol) (PM1) is calculated by a dose modifier. […]
Projected Marker Agent 2 (Gemzar) (PM2) is calculated by a dose modifier. […]

With `CC(=O)O[C@H]1C(=O)[C@@]2(C)[C@H]([C@H](OC(=O)c3ccccc3)[C@]3(O)C[C@H](OC(=O)[C@H](O)[C@@H](NC(=O)c4ccccc4)c4ccccc4)C(C)=C1C3(C)C)[C@]1(OC(C)=O)CO[C@@H]1C[C@@H]2O` [Taxol], the “Current Level of Toxicity/CLTEM1” value (current cycle total dose Taxol 300, Gemzar 6200, marker 9 days after dose) turned out to be 1.50. Besides, the “Previous Level of Toxicity/PLTEM1” value (previous cycle total dose Taxol 385, Gemzar 7650) stood at 1.00.
